23 compounds from patent US9567302B2, “Carbamate compounds and of making and using same” (Abide Therapeutics, Inc., priority 2012, dated 2017) can be followed below.

One may read the IC50 as the concentration that inhibits the measured activity by half. High values mean weaker potency in that assay, low ones greater potency in that assay.

Holding throughout (format): biochemical
Common to all, as to parameters: from tissue; host or cells: mouse brain membrane fraction
Common to all, as to conditions: 30 min preincubation at 37° C.

One assay addresses T1, MAGL (Mus musculus, UniProt O35678).
T1 sequence (O35678 1-303): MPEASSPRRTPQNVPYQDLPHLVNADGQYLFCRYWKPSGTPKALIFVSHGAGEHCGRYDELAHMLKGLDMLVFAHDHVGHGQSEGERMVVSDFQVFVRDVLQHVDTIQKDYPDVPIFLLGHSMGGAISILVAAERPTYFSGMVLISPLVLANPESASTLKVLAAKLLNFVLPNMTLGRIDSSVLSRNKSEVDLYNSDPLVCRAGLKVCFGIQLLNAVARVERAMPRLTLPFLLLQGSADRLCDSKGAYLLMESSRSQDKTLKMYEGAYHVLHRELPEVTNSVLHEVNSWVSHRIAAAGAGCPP
The assay is described as follows: In vitro competitive activity-based protein profiling (FP-Rh), mouse MAGL. As to the method:
(§1) In Vitro Competitive Activity-Based Protein Profiling.
(§2) Proteomes (mouse brain membrane fraction or cell lysates) (50 μL, 1.0 mg/ml total protein concentration) were preincubated with varying concentrations of inhibitors at 37° C. After 30 min, FP-Rh (1.0 μL, 50 μM in DMSO) was added and the mixture was incubated for another 30 min at 37° C. Reactions were quenched with SDS loading buffer (50 μL—4×) and run on SDS-PAGE.

The target of the next assay is T2, FAAH (Mus musculus, UniProt O08914).
T2 sequence (O08914 1-579): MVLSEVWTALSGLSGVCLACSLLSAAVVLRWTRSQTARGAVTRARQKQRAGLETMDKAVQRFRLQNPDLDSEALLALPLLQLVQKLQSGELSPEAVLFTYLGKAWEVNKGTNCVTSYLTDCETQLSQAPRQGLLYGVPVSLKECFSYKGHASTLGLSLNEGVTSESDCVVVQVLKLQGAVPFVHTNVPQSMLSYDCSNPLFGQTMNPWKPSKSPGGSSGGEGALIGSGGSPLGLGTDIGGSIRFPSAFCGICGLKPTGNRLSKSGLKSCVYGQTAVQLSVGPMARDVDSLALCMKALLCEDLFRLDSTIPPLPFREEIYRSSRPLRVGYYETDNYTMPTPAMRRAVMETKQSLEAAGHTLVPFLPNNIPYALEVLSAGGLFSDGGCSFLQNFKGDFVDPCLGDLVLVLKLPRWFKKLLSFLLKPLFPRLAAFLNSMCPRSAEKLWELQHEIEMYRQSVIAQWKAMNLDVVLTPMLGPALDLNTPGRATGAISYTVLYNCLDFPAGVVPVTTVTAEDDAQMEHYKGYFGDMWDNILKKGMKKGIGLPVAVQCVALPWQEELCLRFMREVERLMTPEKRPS
The assay is described as follows: In vitro competitive activity-based protein profiling (FP-Rh), mouse FAAH. As to the method:
as §1, §2

For a further assay, the target named is T3, ABHD6 (Mus musculus, UniProt Q8R2Y0).
T3 sequence (Q8R2Y0 1-336): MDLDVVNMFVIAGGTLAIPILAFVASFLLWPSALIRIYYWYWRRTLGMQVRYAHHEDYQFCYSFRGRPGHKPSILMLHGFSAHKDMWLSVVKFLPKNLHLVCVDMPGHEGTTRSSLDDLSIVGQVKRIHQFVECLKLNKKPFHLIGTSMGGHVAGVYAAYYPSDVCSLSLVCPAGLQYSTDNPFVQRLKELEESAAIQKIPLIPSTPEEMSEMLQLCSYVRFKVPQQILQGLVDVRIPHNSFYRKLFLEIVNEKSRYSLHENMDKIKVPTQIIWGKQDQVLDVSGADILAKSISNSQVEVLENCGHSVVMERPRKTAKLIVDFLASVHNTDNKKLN
The assay is described as follows: In vitro competitive activity-based protein profiling (FP-Rh), mouse ABHD6. As to the method: as §1, §2

On to `CN(C)C(=O)ON1C(=O)CCC1=O` [Example 57, 2,5-Dioxopyrrolidin-1-yl dimethylcarbamate], for which the half-maximal inhibitory concentration (IC50) at MAGL (Table 1, mouse proteome) was more than 10000 nM; at FAAH (Table 1, mouse proteome) it was more than 10000 nM; on ABHD6 (Table 1, mouse proteome), more than 10000 nM.
For the compound `CN(C)C(=O)ON1C(=O)CC(c2ccccc2)C1=O` (stereo not drawn) [Example 59, 2,5-Dioxo-3-phenylpyrrolidin-1-yl dimethylcarbamate], the half-maximal inhibitory concentration (IC50) was more than 10000 nM at MAGL (Table 1, mouse proteome); more than 10000 nM on FAAH (Table 1, mouse proteome); more than 10000 nM on ABHD6 (Table 1, mouse proteome).
Regarding `O=C(ON1C(=O)CC(c2ccccc2)C1=O)N1CCCCC1` (stereo not drawn) [Example 60, 2,5-Dioxo-3-phenylpyrrolidin-1-yl piperidine-1-carboxylate], the IC50 on MAGL (Table 1, mouse proteome) was more than 10000 nM; at FAAH (Table 1, mouse proteome), more than 10000 nM; on ABHD6 (Table 1, mouse proteome) it was more than 10000 nM.
On to `O=C(ON1C(=O)CNC1=O)N1CCCCC1` [Example 61, 2,5-Dioxoimidazolidin-1-yl piperidine-1-carboxylate], for which the IC50 is more than 10000 nM on MAGL (Table 1, mouse proteome); more than 10000 nM on FAAH (Table 1, mouse proteome); more than 10000 nM at ABHD6 (Table 1, mouse proteome).
`O=C(ON1C(=O)CCC1=O)N1CCN(Cc2ccc(N3CCOCC3)cc2F)CC1` [Example 62, 2,5-Dioxopyrrolidin-1-yl 4-(2-fluoro-4-morpholinobenzyl)-piperazine-1-carboxylate]: the IC50 on MAGL (Table 2, mouse proteome) was 1000 to 10000 nM; on FAAH (Table 2, mouse proteome), more than 10000 nM; at ABHD6 (Table 2, mouse proteome) it was 1000 to 10000 nM.
As for `O=C(ON1C(=O)CCC1=O)N1CCN(Cc2ccc(Br)cc2N2CCCCC2)CC1` [Example 65, 2,5-Dioxopyrrolidin-1-yl 4-(4-bromo-2-(piperidin-1-yl)benzyl)piperazine-1-carboxylate], the IC50 on MAGL (Table 2, mouse proteome) is less than 100 nM; at FAAH (Table 2, mouse proteome) it was 1000 to 10000 nM; on ABHD6 (Table 2, mouse proteome), 100 to 1000 nM.
As to `O=C(ON1C(=O)CCC1=O)N1CCN(Cc2ccc(Br)cc2N2CCOCC2)CC1` [Example 66, 2,5-Dioxopyrrolidin-1-yl 4-(4-bromo-2-morpholinobenzyl)piperazine-1-carboxylate], the IC50 was less than 100 nM on MAGL (Table 2, mouse proteome); 1000 to 10000 nM at FAAH (Table 2, mouse proteome); 1000 to 10000 nM on ABHD6 (Table 2, mouse proteome).
As for `COc1cc(N2CCOCC2)ccc1CN1CCN(C(=O)ON2C(=O)CCC2=O)CC1` [Example 67, 2,5-Dioxopyrrolidin-1-yl 4-(2-methoxy-4-morpholinobenzyl)piperazine-1-carboxylate], the IC50 at MAGL (Table 2, mouse proteome) lay in the range of 1000 to 10000 nM; at FAAH (Table 2, mouse proteome) it was 1000 to 10000 nM; at ABHD6 (Table 2, mouse proteome), 1000 to 10000 nM.
`Cc1cc(N2CCCC2)ccc1CN1CCN(C(=O)ON2C(=O)CCC2=O)CC1` [Example 68, 2,5-Dioxopyrrolidin-1-yl 4-(2-methyl-4-(pyrrolidin-1-yl)benzyl)piperazine-1-carboxylate]: the IC50 was 100 to 1000 nM at MAGL (Table 2, mouse proteome); 1000 to 10000 nM at FAAH (Table 2, mouse proteome); 100 to 1000 nM on ABHD6 (Table 2, mouse proteome).
As for `O=C(ON1C(=O)CCC1=O)N1CCN(Cc2ccc(Cl)cc2N2CCOCC2)CC1` [Example 69, 2,5-Dioxopyrrolidin-1-yl 4-(4-chloro-2-morpholinobenzyl)piperazine-1-carboxylate], the IC50 on MAGL (Table 2, mouse proteome) is less than 100 nM; at FAAH (Table 2, mouse proteome), 1000 to 10000 nM; on ABHD6 (Table 2, mouse proteome) it was 100 to 1000 nM.
`COc1ccc(CN2CCN(C(=O)ON3C(=O)CCC3=O)CC2)cc1` [Example 70, 2,5-Dioxopyrrolidin-1-yl 4-(4-methoxybenzyl)piperazine-1-carboxylate]: the IC50 was in the range of 1000 to 10000 nM on MAGL (Table 2, mouse proteome); 1000 to 10000 nM on FAAH (Table 2, mouse proteome); 1000 to 10000 nM at ABHD6 (Table 2, mouse proteome).
For the compound `Cc1ccc(CN2CCN(C(=O)ON3C(=O)CCC3=O)CC2)cc1` [Example 71, 2,5-Dioxopyrrolidin-1-yl 4-(4-methylbenzyl)piperazine-1-carboxylate], the IC50 on MAGL (Table 2, mouse proteome) was 100 to 1000 nM; at FAAH (Table 2, mouse proteome), 1000 to 10000 nM; at ABHD6 (Table 2, mouse proteome) it was 1000 to 10000 nM.
For the compound `O=C(ON1C(=O)CCC1=O)N1CCN(Cc2ccc(Cl)cc2N2CCCC2)CC1` [Example 74, 2,5-Dioxopyrrolidin-1-yl 4-(4-chloro-2-(pyrrolidin-1-yl)benzyl)piperazine-1-carboxylate], the IC50 on MAGL (Table 2, mouse proteome) is less than 100 nM; at FAAH (Table 2, mouse proteome), more than 10000 nM; at ABHD6 (Table 2, mouse proteome) it was 100 to 1000 nM.
As to `O=C(ON1C(=O)CCC1=O)N1CCN(Cc2ccc(N3CCCC3)c(F)c2)CC1` [Example 75, 2,5-Dioxopyrrolidin-1-yl 4-(3-fluoro-4-(pyrrolidin-1-yl)benzyl)piperazine-1-carboxylate], the IC50 is 100 to 1000 nM on MAGL (Table 2, mouse proteome); more than 10000 nM on FAAH (Table 2, mouse proteome); 1000 to 10000 nM on ABHD6 (Table 2, mouse proteome).
The matching figures for `O=C(ON1C(=O)CCC1=O)N1CCN(Cc2ccc(N3CCCC3)cc2Cl)CC1` [Example 78, 2,5-Dioxopyrrolidin-1-yl 4-(2-chloro-4-(pyrrolidin-1-yl)benzyl)piperazine-1-carboxylate]: less than 100 nM, 1000 to 10000 nM and less than 100 nM.
`O=C(ON1C(=O)CCC1=O)N1CCN(Cc2cccc(Cl)c2N2CCOCC2)CC1` [Example 82, 2,5-Dioxopyrrolidin-1-yl 4-{[3-chloro-2-(morpholin-4-yl)phenyl]methyl}piperazine-1-carboxylate]: the IC50 at MAGL (Table 2, mouse proteome) was 100 to 1000 nM; on FAAH (Table 2, mouse proteome), more than 10000 nM; at ABHD6 (Table 2, mouse proteome) it was 1000 to 10000 nM.
As to `O=C(ON1C(=O)CCC1=O)N1CCN(Cc2cccc(N3CCOCC3)c2)CC1` [Example 83, 2,5-Dioxopyrrolidin-1-yl 4-(3-morpholinobenzyl)piperazine-1-carboxylate], the 50% inhibitory concentration (IC50) on MAGL (Table 2, mouse proteome) is 100 to 1000 nM; on FAAH (Table 2, mouse proteome) it was more than 10000 nM; at ABHD6 (Table 2, mouse proteome) it was 100 to 1000 nM.
As to `O=C(ON1C(=O)CCC1=O)N1CCN(Cc2ccc(Cl)cc2-n2cccn2)CC1` [Example 84, 2,5-Dioxopyrrolidin-1-yl 4-(4-chloro-2-(1H-pyrazol-1-yl)benzyl)piperazine-1-carboxylate], the half-inhibitory concentration (IC50) at MAGL (Table 2, mouse proteome) was 100 to 1000 nM; on FAAH (Table 2, mouse proteome), more than 10000 nM; on ABHD6 (Table 2, mouse proteome), 1000 to 10000 nM.
`CC(=O)NC1CCN(c2cc(Cl)ccc2CN2CCN(C(=O)ON3C(=O)CCC3=O)CC2)C1` (stereo not drawn) [Example 85, 2,5-Dioxopyrrolidin-1-yl 4-(2-(3-acetamidopyrrolidin-1-yl)-4-chlorobenzyl)piperazine-1-carboxylate]: the IC50 was less than 100 nM at MAGL (Table 2, mouse proteome); more than 10000 nM at FAAH (Table 2, mouse proteome); 1000 to 10000 nM on ABHD6 (Table 2, mouse proteome).
In the same order, the values of `O=C(ON1C(=O)CCC1=O)N1CCN(Cc2ccc(C(F)(F)F)cc2N2CCOCC2)CC1` [Example 91, 2,5-Dioxopyrrolidin-1-yl 4-{[2-(morpholin-4-yl)-4-(trifluoromethyl)phenyl]methyl}piperazine-1-carboxylate] are less than 100 nM, more than 10000 nM and 100 to 1000 nM.
As to `O=C(ON1C(=O)CCC1=O)N1CCN(Cc2cc(Cl)ccc2N2CCOCC2)CC1` [Example 92, 2,5-Dioxopyrrolidin-1-yl 4-{[5-chloro-2-(morpholin-4-yl)phenyl]methyl}piperazine-1-carboxylate], the IC50 on MAGL (Table 2, mouse proteome) was 100 to 1000 nM; at FAAH (Table 2, mouse proteome) it was more than 10000 nM; at ABHD6 (Table 2, mouse proteome) it was 1000 to 10000 nM.
The matching figures for `O=C(ON1C(=O)CCC1=O)N1CCN(Cc2cccc(F)c2N2CCOCC2)CC1` [Example 93, 2,5-dioxopyrrolidin-1-yl 4-{[3-fluoro-2-(morpholin-4-yl)phenyl]methyl}piperazine-1-carboxylate]: 100 to 1000 nM, more than 10000 nM and more than 10000 nM.
In the same order, the values of `O=C(ON1C(=O)CCC1=O)N1CCN(Cc2ccc(N3CCOCC3)cc2Cl)CC1` [Example 94, 2,5-Dioxopyrrolidin-1-yl 4-(2-chloro-4-morpholinobenzyl)piperazine-1-carboxylate] are 1000 to 10000 nM, more than 10000 nM and 1000 to 10000 nM.
